Reference: patent publication US20250170141A1, “MRGPRX2 MODULATORS AND RELATED METHODS OF TREATMENT” (Escient Pharmaceuticals, Inc., priority 2023, published 2025)

The compounds below were run against T1, human MRGPRX2 (Homo sapiens, UniProt Q96LB1) (assay: MRGPRX2 activity: IP-One Gq HTRF assay in CHO cells, antagonism versus 0.3 uM Cortistatin-14). Conditions: versus 0.3 uM Cortistatin-14 agonist, CHO cells expressing human MRGPRX2, read-out: MRGPRX2 Antagonist Activity.
T1 construct: expressed in transfected cells; host or cells: CHO cells, stably transfected (G418 and Hygromycin B selection)
T1 sequence (Q96LB1 1-330): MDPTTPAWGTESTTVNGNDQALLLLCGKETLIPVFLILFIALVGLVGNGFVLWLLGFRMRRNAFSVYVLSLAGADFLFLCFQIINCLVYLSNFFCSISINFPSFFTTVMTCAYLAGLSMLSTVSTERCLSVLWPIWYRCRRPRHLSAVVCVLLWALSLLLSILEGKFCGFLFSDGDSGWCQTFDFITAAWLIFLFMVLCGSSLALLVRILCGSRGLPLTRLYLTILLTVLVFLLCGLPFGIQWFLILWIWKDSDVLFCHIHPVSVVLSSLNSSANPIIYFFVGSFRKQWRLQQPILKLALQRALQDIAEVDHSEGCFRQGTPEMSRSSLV
Assay type: cell-based
Procedure: CHO cells stably transfected to express human MRGPRX2 were maintained in an incubator at 37° C. with 5% CO2 and grown in F12 (HAM) media with 10% fetal bovine serum (FBS), 1% Glutamax, 1% penicillin/streptomycin, 800 μg/mL Geneticin (G418), and 300 μg/mL Hygromycin B.
Cells were plated in a 384-well assay plate at 20,000 cells per well in 12 μL of Opti-MEM and kept in an incubator overnight. On the day of the assay, compounds solubilized at 10 mM in DMSO were added as a 10-point curve (30 uM final top concentration with 1:3 serial dilutions) using a Tecan D300E digital dispenser. Agonists were diluted in assay buffer (final concentrations of 5.7 mM Tris-HCl, 43 mM NaCl, 50 mM LiCl, pH=8) and 2 μL of the agonist Cortistatin-14 (CPC Scientific, catalog CORT-002) are added to each well. Final concentrations of agonists were 0.3 μM Cortistatin. Final concentrations of DMSO were kept consistent across the plate. Plates were incubated in the dark for 1 h at 37° C. and then for 1 h at room temperature. IP-1 standards and HTRF detection reagents were added according to the IP-One—Gq Kit purchased from Cisbio (part number 62IPAPEJ) and incubated in the dark for 1 h at room temperature. The plate was read on a Molecular Devices SpectraMax iD5 plate reader. The HTRF ratio was calculated from the raw data and graphed using GraphPad Prism to calculate an IC50 value for each compound.
The activity ranges are denoted as follows: “+++++” denotes antagonist activity <100 nM; “++++” denotes antagonist activity between 100 and 500 nM; “+++” denotes activity between 501 and 1000 nM; “++” denotes activity between 1001 and 2500 nM; and “+” denotes activity >2500 nM.

SMILES	IC50
COc1ccc(F)c(CNC2=NS(=O)(=O)c3ccc(F)c(Oc4ccccc4Cl)c3N2)c1 [Compound 1-20, 5-(2-chlorophenoxy)-6-fluoro-3-((2-fluoro-5-methoxybenzyl)amino)-4H-benzo[e][1,2,4]thiadiazine 1,1-dioxide]	1000 to 2500 nM
COc1ccccc1CNC1=NS(=O)(=O)c2ccc(F)c(Oc3ccccc3Cl)c2N1 [Compound 1-31, 5-(2-chlorophenoxy)-6-fluoro-3-((2-methoxybenzyl)amino)-4H-benzo[e][1,2,4]thiadiazine 1,1-dioxide]	100 to 500 nM
O=S1(=O)N=C(NCc2ccccc2C(F)(F)F)Nc2c1cc(F)c(F)c2Oc1ccccc1Cl [Compound 1-22, 5-(2-chlorophenoxy)-6,7-difluoro-3-((2-(trifluoromethyl)benzyl)amino)-4H-benzo[e][1,2,4]thiadiazine 1,1-dioxide]	100 to 500 nM
O=S1(=O)N=C(NCc2ncccc2F)Nc2c1ccc(F)c2Oc1c(Cl)ccc2ccccc12 [Compound 1-34, 5-((2-chloronaphthalen-1-yl)oxy)-6-fluoro-3-(((3-fluoropyridin-2-yl)methyl)amino)-4H-benzo[e][1,2,4]thiadiazine 1,1-dioxide]	< 100 nM
CC(c1ccc(F)cc1)c1c(F)ccc2c1NC(NCc1ncccc1F)=NS2(=O)=O (stereo not shown) [Compound 8-2, 6-fluoro-5-(1-(4-fluorophenyl)ethyl)-3-(((3-fluoropyridin-2-yl)methyl)amino)-4H-benzo[e][1,2,4]thiadiazine 1,1-dioxide]	< 100 nM
O=S1(=O)N=C(NCc2ncccc2C(F)(F)F)Nc2c1ccc(F)c2Oc1ccccc1Cl [Compound 1-26, 5-(2-chlorophenoxy)-6-fluoro-3-(((3-(trifluoromethyl)pyridin-2-yl)methyl)amino)-4H-benzo[e][1,2,4]thiadiazine 1,1-dioxide]	1000 to 2500 nM
O=S1(=O)N=C(NCc2ncccc2F)Nc2c1ccc(Cl)c2Oc1cccc(F)c1Cl [Compound 1-51, 6-chloro-5-(2-chloro-3-fluorophenoxy)-3-(((3-fluoropyridin-2-yl)methyl)amino)-4H-benzo[e][1,2,4]thiadiazine 1,1-dioxide]	< 100 nM
O=S1(=O)N=C(NCc2ncccc2F)Nc2c1ccc(F)c2Oc1cccc(F)c1Cl [Compound 1-19, 5-(2-chloro-3-fluorophenoxy)-6-fluoro-3-(((3-fluoropyridin-2-yl)methyl)amino)-4H-benzo[e][1,2,4]thiadiazine 1,1-dioxide]	< 100 nM
O=S1(=O)N=C(NCc2ncccc2F)Nc2c1ccc(F)c2Oc1ccccc1-c1ccccc1 [Compound 1-35, 5-([1,1′-biphenyl]-2-yloxy)-6-fluoro-3-(((3-fluoropyridin-2-yl)methyl)amino)-4H-benzo[e][1,2,4]thiadiazine 1,1-dioxide]	1000 to 2500 nM
O=S1(=O)N=C(NCc2cccc(F)n2)Nc2c1ccc(Cl)c2Oc1ccccc1Cl [Compound 1-46, 6-chloro-5-(2-chlorophenoxy)-3-(((6-fluoropyridin-2-yl)methyl)amino)-4H-benzo[e][1,2,4]thiadiazine 1,1-dioxide]	< 100 nM
COc1ccc(F)c(CNC2=NS(=O)(=O)c3ccc(F)c(Oc4ccccc4Cl)c3N2)n1 [Compound 1-21, 5-(2-chlorophenoxy)-6-fluoro-3-(((3-fluoro-6-methoxypyridin-2-yl)methyl)amino)-4H-benzo[e][1,2,4]thiadiazine 1,1-dioxide]	501 to 1000 nM
O=S1(=O)N=C(NCc2ncccc2F)Nc2c1ccc(F)c2Oc1ccc(F)cc1F [Compound 1-39, 5-(2,4-difluorophenoxy)-6-fluoro-3-(((3-fluoropyridin-2-yl)methyl)amino)-4H-benzo[e][1,2,4]thiadiazine 1,1-dioxide]	< 100 nM
O=S1(=O)N=C(NCc2ncccc2F)Nc2c(Oc3ccccc3Cl)c(F)cc(F)c21 [Compound 1-1, 5-(2-chlorophenoxy)-6,8-difluoro-3-(((3-fluoropyridin-2-yl)methyl)amino)-4H-benzo[e][1,2,4]thiadiazine 1,1-dioxide]	100 to 500 nM

Next, values leading:

IC50	SMILES
100 to 500 nM	O=S1(=O)N=C(NCc2cccc(F)n2)Nc2c1cc(F)c(F)c2Cc1ccccc1Cl [Compound 4-11, 5-(2-chlorobenzyl)-6,7-difluoro-3-(((6-fluoropyridin-2-yl)methyl)amino)-4H-benzo[e][1,2,4]thiadiazine 1,1-dioxide]
100 to 500 nM	CC(c1ccc(N(C)C)cc1)c1c(F)ccc2c1NC(NCc1cccc(F)c1)=NS2(=O)=O (stereo not shown) [Compound 22-13, 5-(1-(4-(dimethylamino)phenyl)ethyl)-6-fluoro-3-((3-fluorobenzyl)amino)-4H-benzo[e][1,2,4]thiadiazine 1,1-dioxide]
501 to 1000 nM	CC(C)(c1ccccc1F)c1cccc2c1NC(NCc1ncccc1Cl)=NS2(=O)=O [Compound 15-1, 3-(((3-chloropyridin-2-yl)methyl)amino)-5-(2-(2-fluorophenyl)propan-2-yl)-4H-benzo[e][1,2,4]thiadiazine 1,1-dioxide]
< 100 nM	N#Cc1ccc2c(c1Oc1ccccc1Cl)NC(NCc1ncccc1F)=NS2(=O)=O [Compound 3-2, 5-(2-chlorophenoxy)-3-(((3-fluoropyridin-2-yl)methyl)amino)-4H-benzo[e][1,2,4]thiadiazine-6-carbonitrile 1,1-dioxide]
< 100 nM	O=S1(=O)N=C(NCc2ccccc2F)Nc2c(Cc3ccccc3Cl)cccc21 [Compound 6-2, 5-(2-chlorobenzyl)-3-((2-fluorobenzyl)amino)-4H-benzo[e][1,2,4]thiadiazine 1,1-dioxide]
100 to 500 nM	O=S1(=O)N=C(NCc2cccc(Cl)c2F)Nc2c1cc(F)c(F)c2Cc1ccccc1Cl [Compound 4-14, 3-((3-chloro-2-fluorobenzyl)amino)-5-(2-chlorobenzyl)-6,7-difluoro-4H-benzo[e][1,2,4]thiadiazine 1,1-dioxide]
< 100 nM	Cc1ccc(C(C)c2c(F)ccc3c2NC(NCc2cccc(F)c2)=NS3(=O)=O)cn1 (stereo not shown) [Compound 22-24, 6-fluoro-3-((3-fluorobenzyl)amino)-5-(1-(6-methylpyridin-3-yl)ethyl)-4H-benzo[e][1,2,4]thiadiazine 1,1-dioxide]
< 100 nM	O=S1(=O)N=C(NCc2ccc(F)cc2Cl)Nc2c(Cc3ccccc3Cl)cccc21 [Compound 12-4, 3-((2-chloro-4-fluorobenzyl)amino)-5-(2-chlorobenzyl)-4H-benzo[e][1,2,4]thiadiazine 1,1-dioxide]
< 100 nM	O=S1(=O)N=C(NCc2cccnc2Cl)Nc2c(Cc3ccccc3Cl)cccc21 [Compound 12-18, 5-(2-chlorobenzyl)-3-(((2-chloropyridin-3-yl)methyl)amino)-4H-benzo[e][1,2,4]thiadiazine 1,1-dioxide]
< 100 nM	O=S1(=O)N=C(NCc2ccc(F)cc2F)Nc2c(Cc3ccccc3Cl)cccc21 [Compound 12-11, 5-(2-chlorobenzyl)-3-((2,4-difluorobenzyl)amino)-4H-benzo[e][1,2,4]thiadiazine 1,1-dioxide]
100 to 500 nM	O=S1(=O)N=C(NCc2ncccc2F)Nc2c1ccc(F)c2Oc1cccc(F)c1 [Compound 2-8, 6-fluoro-5-(3-fluorophenoxy)-3-(((3-fluoropyridin-2-yl)methyl)amino)-4H-benzo[e][1,2,4]thiadiazine 1,1-dioxide]
< 100 nM	O=S1(=O)N=C(NCc2ccc(F)c(F)c2)Nc2c(Cc3ccccc3Cl)cccc21 [Compound 12-14, 5-(2-chlorobenzyl)-3-((3,4-difluorobenzyl)amino)-4H-benzo[e][1,2,4]thiadiazine 1,1-dioxide]
> 2500 nM	CC(C)c1ccc(NC2=NS(=O)(=O)c3cc(F)c(F)c(Cc4ccccc4Cl)c3N2)cc1 [Compound 4-15, 5-(2-chlorobenzyl)-6,7-difluoro-3-((4-isopropylphenyl)amino)-4H-benzo[e][1,2,4]thiadiazine 1,1-dioxide]
< 100 nM	O=S1(=O)N=C(NCc2ccccc2F)Nc2c(C3(c4ccccc4)CC3)cccc21 [Compound 6-19, 3-((2-fluorobenzyl)amino)-5-(1-phenylcyclopropyl)-4H-benzo[e][1,2,4]thiadiazine 1,1-dioxide]
< 100 nM	O=S1(=O)N=C(NCc2ncccc2F)Nc2c1ccc(F)c2Cc1ccccc1Cl [Compound 4-1, 5-(2-chlorobenzyl)-6-fluoro-3-(((3-fluoropyridin-2-yl)methyl)amino)-4H-benzo[e][1,2,4]thiadiazine 1,1-dioxide]
